These results are taken from US20230312587A1, “PTERIDINONE COMPOUNDS AND USES THEREOF” (Vertex Pharmaceutical Incorporated, priority 2018, published 2023).

In general, EC50 refers to the concentration that produces a half-maximal response.

Read-outs that look alike come from different tables or passages of the source.

Holding throughout (format): cell-based
The subject of assay [1] is HepG2 XBP1(u)-Luc cells. Nature of the assay: HepG2 XBP1 reporter assay. Particulars: 6 h. An outline of the steps:
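Reporter cells are HepG2 stably carrying unspliced XBP1 fused to firefly luciferase, which becomes in-frame after IRE1alpha-mediated splicing. SteadyGlo luminescence was normalized to DMSO-treated cells for IC50 calculation.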

Assay [2] relates to Colo-205 cells. Nature of the assay: Calcium flux assay (FLIPR Calcium 5). Particulars: FLIPR Calcium 5, measured over 36 minutes. The method, then: Compounds described herein induced ER stress by causing intracellular calcium flux. Calcium flux was measured in Colo-205 cells using the FLTPR® Calcium 5 Assay Kit according to manufacter's protocol (Molecular Devices, Cat. #R8186) on a FLIPR3 system (Molecular Devices). Calcium flux is measured over 36 minutes. The Colo-205 calcium flux assay data are summarized in Table 47: A<0.6 μM; 0.6 μM≤B<2.0 μM; 2.0 μM≤C<10.0 μM; D≥10.0 μM.
(In general: Calcium flux is commonly read through the fluorescence of an indicator in the cells.)

For assay [3], the system named is Hek293 empty vector. Put plainly: In vitro cell viability (CellTiter-Glo), Hek293 empty vector. The method, then:
(§1) HEK293 (ATCC, catalog #CRL-1573) cells are plated in 10 cm dishes (Corning, product #430167) into 10 mL of complete DMEM cell culture media [DMEM (Life Technologies, product #11960-051) media supplemented with 10% FBS (Hyclone, catalog #SH30071.03), antimycotic/antibiotic (Life Technologies, product #15240-062), and Glutamax (Life Technologies, product #35050-061)] at 3×10^6 cells per dish. Cells are allowed to attach and grow overnight at 37° C. in humidified 5% CO2. Cells are co-transfected with pVSV-G, pCMV-Gag/Pol and pCLPCX_WFS1 using Fugene 6 (Promega, catalog #E2691) according to manufacturer's protocol. Separately, cells are co-transfected with pVSV-G, pCMV-Gag/Pol and pCLPCX to produce control retrovirus. Cell culture media containing retrovirus (viral supernatant) is collected at 48 and 72 hours following transfection, filtered through a 0.4 uM filter, and stored at −80° C.
(§2) HEK293 cells are plated in 6 well plates (Corning, product #3516) in 2 mL of complete DMEM cell culture media at 1×10^5 cells well and allowed to attach and grow overnight at 37° C. in humidified 5% CO2. The following day, the media is replaced with viral supernatant to which 10 ug/ml of Polybrene® (Santa Cruz Biotech, catalog #sc-134220) is added. Viral supernatant is replaced 24 hours later with complete DMEM media. Transduced cells are selected in complete DMEM cell culture media containing 1 microgram/mL of puromycin (Life Technologies, catalog #A1113803).
(§3) HEK293 cells containing empty pCLPCx vector (HEK293 empty), HEK293 cells stably over-expression WFS1 (HEK293 WFS1), HepG2, and HepG2 cells where WFS1 was depleted via CRISPR/Cas9 (HepG2 WFS1 KO) cells were plated into 96-well black plates (Corning, product #3904) in 100 microliters of complete DMEM cell culture media [DMEM (Life Technologies, product #11960-051) media supplemented with 10% FBS (Hyclone, catalog #SH30071.03), antimycotic/antibiotic (Life Technologies, product #15240-062), and Glutamax (Life Technologies, product #35050-061)] at 1,000 (HEK293) or 5,000 (HepG2) cells per well. Cells were allowed to attach and grow overnight, after which compounds are added at various concentrations. Cell viability was assessed 96 hrs after compound addition with CellTiter-Glo reagent (Promega, catalog #G7570) according to manufacturer's protocol and measurement on a Pherastar luminescence plate reader (BMG Labtech).
(§4) The IC50s for the viability of both the Hek293 empty vector and WFS1 over-expressing cells are summarized in Table 47: A<0.06 μM; 0.06 μM≤B<0.6 μM; 0.6 μM≤C<3.0 μM; D≥3.0 μM.

The subject of assay [4] is Hek293 WFS1 over-expressor. Nature of the assay: In vitro cell viability (CellTiter-Glo), Hek293 WFS1 over-expressor. The method, then:
WFS1 cDNA is amplified from clone RC202901 (Origene Technologies) with primers 5′-TCCGCGGCCCCAAGCTTATCGCCATGGACTCCAACACTGC-3′ (SEQ ID NO: 1), 5′-GATGGGCCCAGATCTCGAGTCAGGCCGCCGACAGGAATG-3′ (SEQ ID NO: 2) and cloned into a retroviral mammalian expression vector pCLPCX using HD Infusion (CLONTECH) at Hind3-Xhol sites using standard procedures. The resulting clone is identified as pCLPCX_WFS1.
as §1, §2, §3, §4
(In general: ATP-based viability assays read luminescence as a measure of living cells.)

The mark [5] stands for this setting: Homo sapiens, HEK293, read-out: Hek293 empty vector viability.
Setting [6] is: Homo sapiens, HEK293, Hek293 WFS1 over-expressing cells, read-out: Hek293 WFS1 viability.

Turning to `Cc1nc(NCc2cnn(CCc3ccc(F)cc3)c2)nc2c1NC(=O)[C@H](C)N2C` [Compound 6, (7S)-2-(((1-(4-fluorophenethyl)-1H-pyrazol-4-yl)methyl)amino)-4,7,8-trimethyl-7,8-dihydropteridin-6(5H)-one], the IC50 in assay [1] (Homo sapiens) was 600 to 2000 nM; in assay [3] (setting [5]), not below 3000 nM; in assay [4] (setting [6]) it was 60 to 600 nM. For the same compound, in assay [2] (Homo sapiens, COLO 205, 0.6 h), the 50% effective concentration (EC50) fell in the range of 600 to 2000 nM.

Turning to `Cc1nc(NCc2cnn(CC3CCC3)c2)nc2c1N(C)C(=O)[C@H](C)N2C` [Compound 7, (7S)-2-(((1-(cyclobutylmethyl)-1H-pyrazol-4-yl)methyl)amino)-4,5,7,8-tetramethyl-7,8-dihydropteridin-6(5H)-one], the IC50 in assay [1] (Homo sapiens) is 600 to 2000 nM; in assay [3] (setting [5]) it was not below 3000 nM; in assay [4] (setting [6]) it was 60 to 600 nM. Also, in assay [2] (Homo sapiens, COLO 205, 0.6 h), the EC50 was in the range of 600 to 2000 nM.

On to `Cc1nc(NCc2cnn(CCc3ccc(F)cc3)c2)nc2c1N(C)C(=O)[C@H](C)N2C` [Compound 8, (7S)-2-(((1-(4-fluorophenethyl)-1H-pyrazol-4-yl)methyl)amino)-4,5,7,8-tetramethyl-7,8-dihydropteridin-6(5H)-one], for which the IC50 was 2000 to 10000 nM in assay [1] (Homo sapiens), not below 3000 nM in assay [3] (setting [5]) and not below 3000 nM in assay [4] (setting [6]). Moreover, the concentration for a half-maximal effect (EC50) in assay [2] (Homo sapiens, COLO 205, 0.6 h) fell in the range of 2000 to 10000 nM.

Regarding `CC[C@H]1C(=O)Nc2cnc(NCc3cnn(Cc4ccc(F)cc4)c3)nc2N1C` [Compound 9, (7S)-7-ethyl-2-(((1-(4-fluorobenzyl)-1H-pyrazol-4-yl)methyl)amino)-8-methyl-7,8-dihydropteridin-6(5H)-one], the IC50 in assay [1] (Homo sapiens) was 600 to 2000 nM; in assay [3] (setting [5]), not below 3000 nM; in assay [4] (setting [6]), 60 to 600 nM. The half-maximal effective concentration (EC50) in assay [2] (Homo sapiens, COLO 205, 0.6 h) was 600 to 2000 nM.

Regarding `Cc1nc(NCc2cnn(Cc3cccc(C(C)C)c3)c2)nc2c1NC(=O)[C@H](C)N2C` [Compound 80, (7S)-2-(((1-(3-isopropylbenzyl)-1H-pyrazol-4-yl)methyl)amino)-4,7,8-trimethyl-7,8-dihydropteridin-6(5H)-one], the IC50 is less than 600 nM in assay [1] (Homo sapiens), not below 3000 nM in assay [3] (setting [5]) and less than 60 nM in assay [4] (setting [6]). The EC50 in assay [2] (Homo sapiens, COLO 205, 0.6 h) lay within 600 to 2000 nM.

For `COc1cc(F)ccc1Cn1cc(CNc2nc(C)c3c(n2)N(C)[C@@H](C)C(=O)N3)cn1` [Compound 83, (7S)-2-(((1-(4-fluoro-2-methoxybenzyl)-1H-pyrazol-4-yl)methyl)amino)-4,7,8-trimethyl-7,8-dihydropteridin-6(5H)-one], the IC50 in assay [1] (Homo sapiens) is 600 to 2000 nM; in assay [3] (setting [5]) it was not below 3000 nM; in assay [4] (setting [6]), less than 60 nM. Further, in assay [2] (Homo sapiens, COLO 205, 0.6 h), the concentration giving a half-maximal response (EC50) is less than 600 nM.

On to `Cc1cc(F)ncc1Cn1cc(CNc2nc(C)c3c(n2)N(C)[C@@H](C)C(=O)N3)cn1` [Compound 94, (7S)-2-(((1-((6-fluoro-4-methylpyridin-3-yl)methyl)-1H-pyrazol-4-yl)methyl)amino)-4,7,8-trimethyl-7,8-dihydropteridin-6(5H)-one], for which the IC50 is 600 to 2000 nM in assay [1] (Homo sapiens), not below 3000 nM in assay [3] (setting [5]) and less than 60 nM in assay [4] (setting [6]). Besides, in assay [2] (Homo sapiens, COLO 205, 0.6 h), the EC50 lay within 600 to 2000 nM.

Take `Cc1nc(NCc2cnn(C[C@H](C)c3ccc(F)cc3)c2)nc2c1NC(=O)[C@H](C)N2C` [Compound 96, (7S)-2-(((1-((R)-2-(4-fluorophenyl)propyl)-1H-pyrazol-4-yl)methyl)amino)-4,7,8-trimethyl-7,8-dihydropteridin-6(5H)-one]: the IC50 in assay [1] (Homo sapiens) is less than 600 nM; in assay [3] (setting [5]), not below 3000 nM; in assay [4] (setting [6]), 60 to 600 nM. In assay [2] (Homo sapiens, COLO 205, 0.6 h), the EC50 is less than 600 nM.

On to `Cc1nc(NCc2cnn(CCC3CCOCC3)c2)nc2c1NC(=O)[C@H](C)N2C` [Compound 115, (7S)-4,7,8-trimethyl-2-(((1-(2-(tetrahydro-2H-pyran-4-yl)ethyl)-1H-pyrazol-4-yl)methyl)amino)-7,8-dihydropteridin-6(5H)-one], for which the IC50 was not below 10000 nM in assay [1] (Homo sapiens), not below 3000 nM in assay [3] (setting [5]) and 600 to 3000 nM in assay [4] (setting [6]). Also, the EC50 in assay [2] (Homo sapiens, COLO 205, 0.6 h) is 2000 to 10000 nM.

As for `CCOc1ccc(CCn2cc(CNc3ncc4c(n3)N(C)[C@@H](C)C(=O)N4)cn2)cc1` [Compound 121, (7S)-2-(((1-(4-ethoxyphenethyl)-1H-pyrazol-4-yl)methyl)amino)-7,8-dimethyl-7,8-dihydropteridin-6(5H)-one], the IC50 in assay [1] (Homo sapiens) was 2000 to 10000 nM; in assay [3] (setting [5]), not below 3000 nM; in assay [4] (setting [6]), 600 to 3000 nM. Moreover, the half-maximal effective concentration (EC50) in assay [2] (Homo sapiens, COLO 205, 0.6 h) was in the range of 600 to 2000 nM.

For `Cc1nc(NCc2cnn(Cc3cc(F)c(F)c(F)c3)c2)nc2c1NC(=O)[C@H](C)N2C` [Compound 122, (7S)-4,7,8-trimethyl-2-(((1-(3,4,5-trifluorobenzyl)-1H-pyrazol-4-yl)methyl)amino)-7,8-dihydropteridin-6(5H)-one], the IC50 in assay [1] (Homo sapiens) was less than 600 nM; in assay [3] (setting [5]) it was not below 3000 nM; in assay [4] (setting [6]) it was less than 60 nM. In addition, the concentration giving a half-maximal response (EC50) in assay [2] (Homo sapiens, COLO 205, 0.6 h) is less than 600 nM.

Regarding `Cc1nc(NCc2cnn(C3CCN(C(=O)c4ccc(F)cc4)CC3)c2)nc2c1NC(=O)[C@H](C)N2C` [Compound 125, (7S)-2-(((1-(1-(4-Fluorobenzoyl)piperidin-4-yl)-1H-pyrazol-4-yl)methyl)amino)-4,7,8-trimethyl-7,8-dihydropteridin-6(5H)-one], the IC50 is not below 10000 nM in assay [1] (Homo sapiens), not below 3000 nM in assay [3] (setting [5]) and 600 to 3000 nM in assay [4] (setting [6]). Further, the concentration giving a half-maximal response (EC50) in assay [2] (Homo sapiens, COLO 205, 0.6 h) lay in the range of 2000 to 10000 nM.

For `Cc1nc(NCc2cnn(CC(C)(O)c3ccc(F)cc3)c2)nc2c1NC(=O)[C@H](C)N2C` (stereo partly drawn) [Compound 128, (7S)-2-(((1-(2-(4-fluorophenyl)-2-hydroxypropyl)-1H-pyrazol-4-yl)methyl)amino)-4,7,8-trimethyl-7,8-dihydropteridin-6(5H)-one], the IC50 is 2000 to 10000 nM in assay [1] (Homo sapiens), not below 3000 nM in assay [3] (setting [5]) and 600 to 3000 nM in assay [4] (setting [6]). In assay [2] (Homo sapiens, COLO 205, 0.6 h), the half-maximal effective concentration (EC50) lay within 2000 to 10000 nM.

Regarding `Cc1nc(NCc2cnn(Cc3ccc(C(F)(F)F)nc3)c2)nc2c1NC(=O)[C@H](C)N2C` [Compound 136, (7S)-4,7,8-trimethyl-2-(((1-((6-(trifluoromethyl)pyridin-3-yl)methyl)-111-pyrazol-4-yl)methyl)amino)-7,8-dihydropteridin-6(5H)-one], the IC50 in assay [1] is 600 to 2000 nM; in assay [3] (Hek293 empty vector, read-out: Hek293 empty vector viability), not below 3000 nM; in assay [3] (cell viability, Hek293 empty vector, read-out: IC50), more than 27000 nM; in assay [3] (cell viability, Hek293 empty vector, read-out: IC50 class), not below 3000 nM; in assay [4] (Hek293 WFS1 over-expressing cells, read-out: Hek293 WFS1 viability), less than 60 nM; in assay [4] (cell viability, Hek293 WFS1 over-expressor, read-out: IC50), 30 nM. Besides, the IC50 in assay [4] (cell viability, Hek293 WFS1 over-expressor, read-out: IC50 class) was less than 60 nM. The EC50 in assay [2] lay in the range of 600 to 2000 nM. Also, in assay [4] (cell viability, WFS1 over-expressor vs empty vector), the “reduction in the IC50 on over-expression of WFS1 in Hek293 cells” value is more than 1000 fold.
